{"source": "patent US20150080475A1", "about": "“Memantine Protects Inflammation-Related Degeneration of Dopamine Neurons Through Inhibition of Over-Activated Microglia and Release of Neurotrophic Factors From Astroglia” (priority 2009, published 2015)", "key": {"[1]": {"test_system": "DA neurons", "assay": "[3H] DA uptake, LPS-induced neurotoxicity in rat mesencephalic neuron-glia cultures", "format": "cell-based", "procedure": "Rat and mouse ventral mesencephalic neuron-glia cultures were prepared using a described protocol (Gao H M, Hong J S, Zhang W Q, Liu B (2002) Distinct Role for Microglia in Rotenone-Induced Degeneration of Dopaminergic Neurons. J Neurosci 22(3):782-790). Briefly, midbrain tissues were dissected from day 14 Fisher 344 rat embryos or day 14 mouse embryos (PHOX^+/+ or PHOX^−/−). Cells were dissociated via gentle mechanical trituration in minimum essential medium (MEM) and immediately seeded (5×10^5/well) in poly D-lysine (20 μg/mL) precoated 24-well plates. Cells were seeded in maintenance media and treated with the treatment media described previously (Gao H M, Hong J S, Zhang W Q, Liu B (2002) Distinct Role for Microglia in Rotenone-Induced Degeneration of Dopaminergic Neurons. J Neurosci 22(3):782-790). Three days after seeding, the cells were replenished with 500 μL of fresh maintenance media. Cultures were exposed 7 days after seeding. At the time of treatment, the composition of the cultures was approximately 48% astrocytes, 11% microglia, 40% neurons, and 1 to 1.5% TH-immunoreactive (ir) neurons.\nCells were incubated in Krebs-Ringer buffer (16 mM NaH2PO4, 1.2 mM MgSO4, 1.3 mM EDTA, […], for 21 min at 37° C. with 1 μM [^3H] DA. Nonspecific uptake was blocked for DA with 10 μM mazindole. After incubation, cells were washed three times with 1 mL/well of ice-cold Krebs-Ringer buffer. Cells were then lysed with 0.5 mL/well of 1 N NaOH and mixed with 15 mL of scintillation fluid. Radioactivity was measured on a scintillation counter, where specific [^3H] DA uptake was calculated by subtracting the mazindole.\nRat mesencephalic neuron-glia cultures were pretreated for 30 min with vehicle or 1, 3, 10 μM MMT before adding LPS (2.5 to 5 ng/ml) to the cultures. One week later, the neurotoxic effect of LPS on DA neurons were assessed by both [H^3] DA uptake, which measures the functional capacity of high affinity uptake of DA cells and cell count of tyrosine hydroxylase-positive (TH-ir) cells. [H^3] […]"}, "[2]": {"test_system": "NMDA receptor", "conditions": "in vitro; cited from earlier work"}, "[3]": {"test_system": "GDNF", "assay": "Western blot of GDNF protein in astroglial cells", "format": "cell-based, rat", "conditions": "memantine 10 μM", "procedure": "GDNF mediated memantine-induced neurotrophic effects. Rat primary astroglia were exposed to 10 μM memantine for various time points ranging from 0 minute to 24 h. (FIG. 5A) Total RNA was extracted. […] (FIG. 5B) The ratio of densitometry values of GDNF and β-actin was analyzed and normalized to 0 min value. (FIG. 5C) Total protein of astroglial cells was extracted. Western blot analyses were performed with the antibody to GDNF. GAPDH was used as loading control. (FIG. 5D) The ratio of densitometry values of GDNF and GAPDH was analyzed and normalized to 0 min value. Values were expressed as mean±S.E.M. of three independent experiments. *p<0.05, **p<0.01, ***p<0.001, Bonferroni t-test vs 0 min for FIG. 5B and FIG. 5D; (FIG. 5E) Neuron-glia cultures were treated with either control goat IgG (isotype Ab), or goat anti-GDNF, combined with memantine (10 μM) treatment. DA uptake capacity was measured 7 days later. Results were expressed as a percentage of the vehicle-treated control cultures and represented mean±S.E.M. of three independent experiments performed in triplicate. *p<0.05, **p<0.01, ***p<0.001, Bonferroni's test vs control; #p<0.05, Bonferroni t-test vs memantine treated cultures.\nMixed-glia cultures were first prepared from brains of 1-day-old Fisher 344 rat pups, as described previously. Briefly, mechanically dissociated brain cells (5×10^7) were seeded onto 150-cm^2 culture flasks in Dulbecco's modified Eagle's medium containing 10% heat-inactivated FBS, 2 mM L-glutamine, 1 mM sodium pyruvate, 100 μM non-essential amino acids, 50 U/ml penicillin and 50 μg/ml streptomycin. The cultures were maintained at 37° C. in a humidified atmosphere of 5% CO2 and 95% air, and medium was replenished 4 days after the initial seeding. Upon reaching confluence (usually 12-14 days later), microglia were detached from astrocytes by shaking the flasks at a speed of 180 r.p.m. for 5 h. Astrocytes were then detached with trypsin-ethylenediaminetetraacetic acid (EDTA) and seeded in the same culture medium. […]"}}}
{"smiles": "CC12CC3CC(C)(C1)CC(N)(C3)C2.Cl", "note": "[MMT, 1-amino-3,5-dimethyladamantane hydrochloride]", "values": [{"measurement": "time of MMT addition after LPS still giving significant neuroprotection (DA uptake)", "setting": "[1]; MMT 10 μM, LPS 2.5 ng/ml, post-treatment", "value": "up to 120 min"}, {"measurement": "effect on LPS-induced decrease in DA uptake", "setting": "[1]; neuron-enriched cultures", "value": "not in neuron-enriched cultures"}, {"measurement": "effect on LPS-induced decrease in DA uptake", "setting": "[1]; pretreated 30 min with 1, 3, 10 μM MMT, neuron-glia cultures, dose-dependent", "value": "significantly attenuated the LPS-induced decrease in DA uptake"}, {"measurement": "concentration of memantine on NMDA receptor blocking", "setting": "[2]", "value": "about 10 μM"}, {"measurement": "GDNF protein level vs vehicle-treated control", "setting": "[3]; 6 h", "value": "significantly increased level"}, {"measurement": "GDNF protein level vs vehicle-treated control", "setting": "[3]; 12 h", "value": "peaked"}, {"measurement": "GDNF protein level vs vehicle-treated control", "setting": "[3]; 24 h", "value": "still expressed"}]}
